Data from patent US9663536B2, “Inhibitors of human immunodeficiency virus replication” (priority 2013, dated 2017).
Where two headings read alike, the source gives them in different places.

What was measured:
[1] = from C=CCCc1ccccc1Cc1cnc(-c2cc3nc(C)c([C@H](OC(C)(C)C)C(=O)OCC)c(N4CCC(C)(OCC=C)CC4)n3n2)s1, rcm bond, Hoveyda-Grubbs II (7 mol%), DCE, 3.67 mM, 70.0 °C, 2.0 h
[2] = rcm bond, 20-membered ring, Hoveyda-Grubbs II (10 mol%), DCE, 70.0 °C
[3] = system: recombinant NL-Rluc virus; assay: Inhibition of HIV replication (NL-Rluc virus in MT-2 cells, luciferase readout); assay type: cell-based; details: Human immunodeficiency virus 1, MT2, 120 h

For CCOC(=O)[C@@H](OC(C)(C)C)c1c(C)nc2cc3nn2c1N1CCC(C)(CC1)OCC=CCCc1ccccc1Cc1cnc-3s1, the ring closure, yield after HPLC ([1]; 19-membered ring) was 8.65% and the ring closure, yield after HPLC ([1]; 20-membered ring) was 19.7%.

In the case of CCOC(=O)[C@@H](OC(C)(C)C)c1c(C)nc2cc3nn2c1N1CCC(C)(CC1)OCC=CCOc1ccccc1Cc1cnc-3s1, the ring closure, isolated yield ([2]; from C=CCOc1ccccc1Cc1cnc(-c2cc3nc(C)c([C@H](OC(C)(C)C)C(=O)OCC)c(N4CCC(C)(OCC=C)CC4)n3n2)s1, 1.64 mM, 2.0 h) is reported as 76%.

COC(=O)Cc1c(C)nc2cc3nn2c1N1CCC(C)(CC/C=C/COc2ccccc2Cn2cc-3cn2)CC1 gave a ring closure, isolated yield ([2]; from C=CCCC1(C)CCN(c2c(CC(=O)OC)c(C)nc3cc(-c4cnn(Cc5ccccc5OCC=C)c4)nn23)CC1, 5.02 mM, 1.0 h) of 63%.

COC(=O)[C@@H](OC(C)(C)C)c1c(C)nc2cc3nn2c1N1CCC(C)(CC1)OC/C=C/COc1ccccc1Cc1cnn-3c1 showed a ring closure, isolated yield ([2]; from C=CCOc1ccccc1Cc1cnn(-c2cc3nc(C)c([C@H](OC(C)(C)C)C(=O)OC)c(N4CCC(C)(OCC=C)CC4)n3n2)c1, 1.2 mM, 3.0 h) of 74%.

For Cc1nc2cc3nn2c(c1[C@H](OC(C)(C)C)C(=O)O)N1CCC(C)(CCCCCOc2cccc(c2)Cc2cnn-3c2)CC1 [Example 39, (2S)-2-(tert-Butoxy)-2-{4,26-dimethyl-20-oxa-1,5,7,8,10,11-hexaazahexacyclo[24.2.2.1^6,9.1^10,13.1^15,19.0^2,7]tritriaconta-2,4,6(33),8,11,13(32),15(31),16,18-nonaen-3-yl}acetic acid], the EC50 [3] was 6 nM.

Work on Cc1nc2cc3nn2c(c1[C@H](OC(C)(C)C)C(=O)O)N1CCC(C)(CCCCCOc2ccccc2Cn2cc-3cn2)CC1 [Example 40, (2S)-2-(tert-Butoxy)-2-{4,27-dimethyl-21-oxa-1,5,7,8,12,13-hexaazahexacyclo[25.2.2.1^6,9.1^10,13.0^2,7.0^15,20]tritriaconta-2,4,6(33),8,10(32),11,15(20),16,18-nonaen-3-yl}acetic acid] yielded an EC50 [3] of 4 nM.

Work on Cc1nc2cc3nn2c(c1[C@H](OC(C)(C)C)C(=O)O)N1CCC(C)(CC/C=C/COc2ccccc2Cn2cc-3cn2)CC1 [Example 41] yielded an EC50 [3] of 3 nM.
